# Measured values reported in ChEMBL document CHEMBL5653615 (J Biol Chem, 2013).
# Key:
# [1] = target: Fibroblast growth factor receptor 4 (Homo sapiens) (UniProt P22455); experiment: Inhibition of human FGFR4 at 18.6 nM by HotSpot assay relative to control
# [2] = target: Proto-oncogene tyrosine-protein kinase ROS (Homo sapiens) (UniProt P08922); experiment: Inhibition of human ROS1 at 18.6 nM by HotSpot assay relative to control
# [3] = target: T1, Inhibitor of nuclear factor kappa-B kinase subunit alpha (Homo sapiens) (UniProt O15111); experiment: Inhibition of human IKKa at 18.6 nM by HotSpot assay relative to control
# T1 sequence (whole entry): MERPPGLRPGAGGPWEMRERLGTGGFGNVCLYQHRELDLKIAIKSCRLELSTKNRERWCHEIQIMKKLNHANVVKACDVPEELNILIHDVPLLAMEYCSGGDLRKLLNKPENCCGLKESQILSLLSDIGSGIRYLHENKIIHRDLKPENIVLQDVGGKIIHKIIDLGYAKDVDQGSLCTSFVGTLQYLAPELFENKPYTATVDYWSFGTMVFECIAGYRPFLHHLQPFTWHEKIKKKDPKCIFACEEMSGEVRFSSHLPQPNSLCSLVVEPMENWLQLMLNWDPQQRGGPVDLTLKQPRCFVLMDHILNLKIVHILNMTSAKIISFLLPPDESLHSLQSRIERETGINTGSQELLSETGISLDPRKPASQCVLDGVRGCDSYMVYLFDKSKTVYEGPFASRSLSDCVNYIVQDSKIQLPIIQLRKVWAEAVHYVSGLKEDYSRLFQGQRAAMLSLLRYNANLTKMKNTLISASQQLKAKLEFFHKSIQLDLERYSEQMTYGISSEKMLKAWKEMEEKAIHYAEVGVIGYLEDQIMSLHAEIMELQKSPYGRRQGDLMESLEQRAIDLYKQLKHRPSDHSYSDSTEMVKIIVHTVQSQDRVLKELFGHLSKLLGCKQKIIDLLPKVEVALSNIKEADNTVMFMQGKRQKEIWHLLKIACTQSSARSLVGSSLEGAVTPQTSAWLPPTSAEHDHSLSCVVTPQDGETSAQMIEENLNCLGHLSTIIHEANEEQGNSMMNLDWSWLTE
# [4] = target: T2, Serine/threonine-protein kinase 17A (Homo sapiens) (UniProt Q9UEE5); experiment: Inhibition of human DRAK1 at 18.6 nM by HotSpot assay relative to control
# T2 sequence (whole entry): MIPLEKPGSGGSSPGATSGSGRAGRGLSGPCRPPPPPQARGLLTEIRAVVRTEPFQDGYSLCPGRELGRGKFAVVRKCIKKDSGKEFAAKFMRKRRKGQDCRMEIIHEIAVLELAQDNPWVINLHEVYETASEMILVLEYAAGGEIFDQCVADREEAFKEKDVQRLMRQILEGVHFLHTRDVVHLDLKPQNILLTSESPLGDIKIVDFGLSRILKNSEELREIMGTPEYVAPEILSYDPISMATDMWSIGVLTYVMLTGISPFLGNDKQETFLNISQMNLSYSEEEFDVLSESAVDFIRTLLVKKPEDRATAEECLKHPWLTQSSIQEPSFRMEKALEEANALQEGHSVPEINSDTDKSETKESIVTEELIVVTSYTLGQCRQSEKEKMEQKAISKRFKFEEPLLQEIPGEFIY
# [5] = target: MAP kinase-interacting serine/threonine-protein kinase 2 (Homo sapiens) (UniProt Q9HBH9); experiment: Inhibition of human MNK2 at 18.6 nM by HotSpot assay relative to control
# [6] = target: T3, Serine/threonine-protein kinase Nek11 (Homo sapiens) (UniProt Q8NG66); experiment: Inhibition of human NEK11 at 1.82 nM by HotSpot assay relative to control
# T3 sequence (whole entry): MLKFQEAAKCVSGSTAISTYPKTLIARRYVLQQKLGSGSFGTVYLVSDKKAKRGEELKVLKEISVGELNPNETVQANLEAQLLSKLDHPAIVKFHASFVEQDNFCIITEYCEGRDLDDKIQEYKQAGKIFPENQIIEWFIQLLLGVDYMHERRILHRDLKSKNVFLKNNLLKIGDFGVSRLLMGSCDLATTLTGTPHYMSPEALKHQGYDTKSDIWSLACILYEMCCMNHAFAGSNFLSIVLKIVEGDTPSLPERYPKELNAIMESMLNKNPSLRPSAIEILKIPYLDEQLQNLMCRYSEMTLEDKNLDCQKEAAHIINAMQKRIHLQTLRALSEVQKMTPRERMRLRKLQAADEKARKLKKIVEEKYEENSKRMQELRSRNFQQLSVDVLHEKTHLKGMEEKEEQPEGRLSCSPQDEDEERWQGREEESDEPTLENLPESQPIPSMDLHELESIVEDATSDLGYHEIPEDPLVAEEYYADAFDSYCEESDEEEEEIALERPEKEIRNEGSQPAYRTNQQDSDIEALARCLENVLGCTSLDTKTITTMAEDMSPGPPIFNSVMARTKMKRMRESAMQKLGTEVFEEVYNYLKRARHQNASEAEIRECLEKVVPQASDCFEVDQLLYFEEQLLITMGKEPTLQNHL
# [7] = target: Focal adhesion kinase 1 (Homo sapiens) (UniProt Q05397); experiment: Inhibition of human FAK at 1.82 nM by HotSpot assay relative to control
# [8] = target: Ribosomal protein S6 kinase beta-2 (Homo sapiens) (UniProt Q9UBS0); experiment: Inhibition of human RPS6KB2 at 1.82 nM by HotSpot assay relative to control
# [9] = target: T4, Inhibitor of nuclear factor kappa-B kinase subunit beta (Homo sapiens) (UniProt O14920); conditions: dose 1.82 nM
# T4 sequence (whole entry): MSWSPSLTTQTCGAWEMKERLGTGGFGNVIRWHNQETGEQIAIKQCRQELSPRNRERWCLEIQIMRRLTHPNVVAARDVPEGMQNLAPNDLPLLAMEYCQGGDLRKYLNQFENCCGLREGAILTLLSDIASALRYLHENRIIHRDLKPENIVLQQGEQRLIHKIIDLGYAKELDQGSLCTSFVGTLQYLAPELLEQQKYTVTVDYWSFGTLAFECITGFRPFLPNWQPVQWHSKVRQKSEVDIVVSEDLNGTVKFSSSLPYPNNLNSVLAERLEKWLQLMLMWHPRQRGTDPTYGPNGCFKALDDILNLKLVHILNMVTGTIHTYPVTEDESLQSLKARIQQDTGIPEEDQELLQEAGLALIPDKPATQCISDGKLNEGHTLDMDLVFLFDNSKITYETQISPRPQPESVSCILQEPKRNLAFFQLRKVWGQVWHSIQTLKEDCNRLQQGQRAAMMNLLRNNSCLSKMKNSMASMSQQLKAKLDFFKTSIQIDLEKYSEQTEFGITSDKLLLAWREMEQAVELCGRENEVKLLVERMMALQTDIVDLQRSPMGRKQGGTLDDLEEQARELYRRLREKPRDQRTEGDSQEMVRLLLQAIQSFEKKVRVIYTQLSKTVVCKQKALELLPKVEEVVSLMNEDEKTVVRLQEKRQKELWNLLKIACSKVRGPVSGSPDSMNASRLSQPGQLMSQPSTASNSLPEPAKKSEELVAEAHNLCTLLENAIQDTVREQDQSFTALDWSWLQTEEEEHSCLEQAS
# Description: Inhibition of human IKKb at 1.82 nM by HotSpot assay relative to control
# Focal adhesion kinase 1 (Homo sapiens), sequence (Q05397 2-1052 limits assumed): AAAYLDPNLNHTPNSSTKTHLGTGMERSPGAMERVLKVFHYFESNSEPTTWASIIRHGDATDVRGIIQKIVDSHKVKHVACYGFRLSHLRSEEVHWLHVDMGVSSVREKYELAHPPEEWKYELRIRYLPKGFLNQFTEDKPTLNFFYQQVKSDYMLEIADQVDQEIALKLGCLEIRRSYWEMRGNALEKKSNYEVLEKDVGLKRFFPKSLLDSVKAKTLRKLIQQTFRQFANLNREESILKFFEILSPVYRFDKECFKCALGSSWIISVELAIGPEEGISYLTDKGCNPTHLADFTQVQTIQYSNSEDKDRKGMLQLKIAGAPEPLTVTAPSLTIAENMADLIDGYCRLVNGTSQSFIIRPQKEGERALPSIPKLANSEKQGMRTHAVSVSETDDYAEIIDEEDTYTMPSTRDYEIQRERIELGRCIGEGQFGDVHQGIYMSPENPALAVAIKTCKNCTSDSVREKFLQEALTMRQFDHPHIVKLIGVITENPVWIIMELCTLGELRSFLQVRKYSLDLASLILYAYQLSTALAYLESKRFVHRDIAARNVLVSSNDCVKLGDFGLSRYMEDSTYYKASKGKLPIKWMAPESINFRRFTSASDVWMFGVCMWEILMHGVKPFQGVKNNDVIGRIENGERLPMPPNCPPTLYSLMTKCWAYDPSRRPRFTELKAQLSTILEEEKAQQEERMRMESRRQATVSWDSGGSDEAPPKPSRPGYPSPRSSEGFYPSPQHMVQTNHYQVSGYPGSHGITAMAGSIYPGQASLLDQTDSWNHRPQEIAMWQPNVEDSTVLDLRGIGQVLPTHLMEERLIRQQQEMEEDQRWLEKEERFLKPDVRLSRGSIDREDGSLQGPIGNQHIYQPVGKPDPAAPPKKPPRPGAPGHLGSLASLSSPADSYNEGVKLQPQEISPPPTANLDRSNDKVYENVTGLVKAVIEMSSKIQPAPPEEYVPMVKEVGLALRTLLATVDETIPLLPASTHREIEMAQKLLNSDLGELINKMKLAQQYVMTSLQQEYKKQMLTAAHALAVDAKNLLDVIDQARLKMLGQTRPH
# Ribosomal protein S6 kinase beta-2 (Homo sapiens), sequence (Q9UBS0 whole entry): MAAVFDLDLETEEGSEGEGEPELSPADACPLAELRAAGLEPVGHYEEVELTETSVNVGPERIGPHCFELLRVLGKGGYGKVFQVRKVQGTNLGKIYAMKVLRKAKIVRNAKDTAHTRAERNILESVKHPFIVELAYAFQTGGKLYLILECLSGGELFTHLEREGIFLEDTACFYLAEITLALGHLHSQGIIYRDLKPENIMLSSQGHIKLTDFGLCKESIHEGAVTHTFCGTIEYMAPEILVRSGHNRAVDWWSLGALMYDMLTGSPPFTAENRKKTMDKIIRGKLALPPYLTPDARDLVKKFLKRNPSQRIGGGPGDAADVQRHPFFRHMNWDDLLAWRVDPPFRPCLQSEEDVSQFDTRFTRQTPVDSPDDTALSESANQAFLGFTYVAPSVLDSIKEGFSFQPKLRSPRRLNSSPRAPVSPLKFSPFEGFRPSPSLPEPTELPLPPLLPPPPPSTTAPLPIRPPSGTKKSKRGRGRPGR
# Fibroblast growth factor receptor 4 (Homo sapiens), sequence (P22455 22-802 limits assumed): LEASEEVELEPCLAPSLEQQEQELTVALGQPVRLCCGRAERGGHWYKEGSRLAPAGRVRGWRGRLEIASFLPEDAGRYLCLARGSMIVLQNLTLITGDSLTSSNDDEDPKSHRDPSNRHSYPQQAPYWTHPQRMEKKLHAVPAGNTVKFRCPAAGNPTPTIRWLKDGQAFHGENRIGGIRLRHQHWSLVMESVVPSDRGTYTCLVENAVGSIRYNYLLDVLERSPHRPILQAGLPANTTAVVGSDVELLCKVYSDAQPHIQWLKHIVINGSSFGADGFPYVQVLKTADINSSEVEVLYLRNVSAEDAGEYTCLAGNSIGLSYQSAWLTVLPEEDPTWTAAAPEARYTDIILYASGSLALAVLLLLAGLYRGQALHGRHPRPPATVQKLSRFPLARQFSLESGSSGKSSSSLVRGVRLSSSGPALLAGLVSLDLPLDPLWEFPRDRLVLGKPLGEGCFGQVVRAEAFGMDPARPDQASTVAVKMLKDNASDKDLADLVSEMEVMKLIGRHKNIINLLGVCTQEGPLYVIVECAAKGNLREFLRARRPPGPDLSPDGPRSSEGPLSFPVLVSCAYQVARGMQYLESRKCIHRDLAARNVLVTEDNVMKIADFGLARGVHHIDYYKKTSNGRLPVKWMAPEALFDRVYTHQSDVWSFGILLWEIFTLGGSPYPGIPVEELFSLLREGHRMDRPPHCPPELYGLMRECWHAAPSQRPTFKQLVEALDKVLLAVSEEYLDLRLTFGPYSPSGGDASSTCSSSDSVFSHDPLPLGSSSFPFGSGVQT
# MAP kinase-interacting serine/threonine-protein kinase 2 (Homo sapiens), sequence (Q9HBH9 whole entry, looked up): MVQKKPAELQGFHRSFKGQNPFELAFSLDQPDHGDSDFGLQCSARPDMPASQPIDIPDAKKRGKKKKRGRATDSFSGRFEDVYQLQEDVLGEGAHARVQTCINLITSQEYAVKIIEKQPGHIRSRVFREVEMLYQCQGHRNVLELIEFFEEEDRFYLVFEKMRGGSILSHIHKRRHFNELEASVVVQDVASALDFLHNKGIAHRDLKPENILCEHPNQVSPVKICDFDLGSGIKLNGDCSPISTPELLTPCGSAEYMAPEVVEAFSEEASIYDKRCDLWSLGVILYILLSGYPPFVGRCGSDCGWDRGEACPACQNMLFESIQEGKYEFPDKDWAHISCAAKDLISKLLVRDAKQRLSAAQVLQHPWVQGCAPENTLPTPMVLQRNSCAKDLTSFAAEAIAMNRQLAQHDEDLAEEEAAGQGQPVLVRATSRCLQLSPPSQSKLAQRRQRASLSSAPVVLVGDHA
# Proto-oncogene tyrosine-protein kinase ROS (Homo sapiens), sequence (P08922 whole entry): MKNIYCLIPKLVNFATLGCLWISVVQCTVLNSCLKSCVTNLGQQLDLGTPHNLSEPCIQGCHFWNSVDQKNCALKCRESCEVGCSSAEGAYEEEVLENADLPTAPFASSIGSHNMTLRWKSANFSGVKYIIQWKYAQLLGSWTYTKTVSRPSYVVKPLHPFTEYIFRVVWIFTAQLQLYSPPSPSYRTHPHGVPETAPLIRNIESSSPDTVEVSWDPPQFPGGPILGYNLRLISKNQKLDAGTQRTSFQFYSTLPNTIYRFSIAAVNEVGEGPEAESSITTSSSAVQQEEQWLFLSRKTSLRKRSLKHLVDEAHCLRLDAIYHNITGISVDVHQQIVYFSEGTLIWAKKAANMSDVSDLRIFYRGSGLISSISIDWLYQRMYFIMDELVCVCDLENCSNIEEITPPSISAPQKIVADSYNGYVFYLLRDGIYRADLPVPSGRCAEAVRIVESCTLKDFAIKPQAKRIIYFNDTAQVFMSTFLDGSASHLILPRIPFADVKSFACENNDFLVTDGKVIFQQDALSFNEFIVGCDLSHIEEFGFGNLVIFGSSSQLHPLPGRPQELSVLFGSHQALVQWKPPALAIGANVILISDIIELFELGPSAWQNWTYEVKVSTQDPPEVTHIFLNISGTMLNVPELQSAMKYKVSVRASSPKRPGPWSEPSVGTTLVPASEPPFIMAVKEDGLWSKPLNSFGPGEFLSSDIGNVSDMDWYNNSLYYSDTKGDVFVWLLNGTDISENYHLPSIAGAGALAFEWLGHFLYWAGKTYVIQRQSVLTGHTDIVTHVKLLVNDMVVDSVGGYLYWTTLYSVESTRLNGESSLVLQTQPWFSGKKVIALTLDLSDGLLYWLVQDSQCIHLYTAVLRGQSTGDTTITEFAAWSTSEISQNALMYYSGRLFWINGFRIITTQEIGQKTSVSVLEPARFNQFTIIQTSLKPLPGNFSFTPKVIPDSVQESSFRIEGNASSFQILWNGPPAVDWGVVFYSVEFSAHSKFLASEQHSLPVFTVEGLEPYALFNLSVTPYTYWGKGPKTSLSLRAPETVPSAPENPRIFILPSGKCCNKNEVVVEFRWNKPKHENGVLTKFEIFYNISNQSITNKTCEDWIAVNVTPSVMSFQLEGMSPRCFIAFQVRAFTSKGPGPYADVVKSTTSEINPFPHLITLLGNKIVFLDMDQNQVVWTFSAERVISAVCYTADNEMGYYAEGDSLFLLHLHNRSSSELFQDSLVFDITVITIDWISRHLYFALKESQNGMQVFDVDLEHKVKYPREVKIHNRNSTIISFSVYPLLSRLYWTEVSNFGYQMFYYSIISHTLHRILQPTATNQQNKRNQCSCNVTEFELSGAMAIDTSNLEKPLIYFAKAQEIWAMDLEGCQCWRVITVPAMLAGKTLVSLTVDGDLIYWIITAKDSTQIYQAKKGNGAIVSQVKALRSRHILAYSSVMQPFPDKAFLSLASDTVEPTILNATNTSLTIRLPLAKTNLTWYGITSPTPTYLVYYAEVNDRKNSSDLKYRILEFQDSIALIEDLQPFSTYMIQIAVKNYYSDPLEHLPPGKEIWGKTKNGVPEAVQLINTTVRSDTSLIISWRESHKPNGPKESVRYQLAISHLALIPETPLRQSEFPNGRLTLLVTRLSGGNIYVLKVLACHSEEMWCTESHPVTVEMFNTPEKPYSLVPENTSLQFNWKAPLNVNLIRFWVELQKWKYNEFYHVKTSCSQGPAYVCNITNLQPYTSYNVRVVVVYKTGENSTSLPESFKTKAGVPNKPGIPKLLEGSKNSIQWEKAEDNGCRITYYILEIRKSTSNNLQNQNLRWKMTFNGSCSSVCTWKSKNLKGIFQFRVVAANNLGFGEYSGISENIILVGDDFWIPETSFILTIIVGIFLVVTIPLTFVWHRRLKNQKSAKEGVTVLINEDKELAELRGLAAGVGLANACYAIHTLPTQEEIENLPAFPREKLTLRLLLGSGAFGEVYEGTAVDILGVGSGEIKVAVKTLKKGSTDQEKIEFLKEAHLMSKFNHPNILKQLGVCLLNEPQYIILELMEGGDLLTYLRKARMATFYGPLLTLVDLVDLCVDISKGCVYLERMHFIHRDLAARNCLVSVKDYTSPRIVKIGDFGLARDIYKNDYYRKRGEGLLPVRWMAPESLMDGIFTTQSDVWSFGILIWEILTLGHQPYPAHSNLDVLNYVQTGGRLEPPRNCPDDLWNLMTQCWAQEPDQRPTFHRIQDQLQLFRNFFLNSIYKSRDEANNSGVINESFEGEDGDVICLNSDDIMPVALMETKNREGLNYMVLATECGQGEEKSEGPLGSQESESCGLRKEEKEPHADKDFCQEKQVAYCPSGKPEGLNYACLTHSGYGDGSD
inhibition [1] [%],inhibition [2] [%],inhibition [3] [%],inhibition [4] [%],inhibition [5] [%],inhibition [6] [%],inhibition [7] [%],inhibition [8] [%],inhibition [9] [%],Structure (SMILES)
9,-1.08,5.65,0.05,-3.65,–,–,–,–,C[C@]1(O)C[C@@H](c2nc(-c3ccc4ccc(-c5ccccc5)nc4c3)c3c(N)nccn32)C1
–,–,–,–,–,-5.31,1.65,-0.77,-5.57,C[C@@]1(C(=O)Nc2ccc(F)nc2)CCCN1c1nc(Nc2cc(C3CC3)n[nH]2)c2cccn2n1
